Source: PubChem BioAssay (NCI)
Values after ≈ are worked out from the molar mass of the structure shown.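 Compound exposure: 48 hours, 5 concentrations, 96-well plates. GI50 marks 50% less growth. Definition used: TGI = concentration required for complete inhibition of growth.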

Tests used:
Assay in all cases: NCI tumour cell line growth inhibition, 48 h
A498 renal = system: A498 renal
DU-145 prostate = system: DU-145 prostate
HS 578T breast = system: HS 578T breast
MDA-N = system: MDA-N
DLD-1 colon = system: DLD-1 colon
DMS 114 small cell lung = system: DMS 114 small cell lung
DMS 273 small cell lung = system: DMS 273 small cell lung
HOP-18 NSCLC = system: HOP-18 NSCLC
KM20L2 colon = system: KM20L2 colon
P388 leukemia = system: P388 leukemia
XF 498 CNS = system: XF 498 CNS
MDA-MB-231 breast = system: MDA-MB-231 breast
PC-3 prostate = system: PC-3 prostate
T-47D breast = system: T-47D breast

| SMILES | TGI (A498 renal) [µM] | TGI (DU-145 prostate) | TGI (HS 578T breast) | TGI (MDA-N) [µM] | TGI (DLD-1 colon) [µM] | TGI (DMS 114 small cell lung) [µM] | TGI (DMS 273 small cell lung) [µM] | TGI (HOP-18 NSCLC) [µM] | TGI (KM20L2 colon) [µM] | TGI (XF 498 CNS) [µM] | TGI (MDA-MB-231 breast) | TGI (PC-3 prostate) | TGI (T-47D breast) | further results |
| --- | --- | --- | --- | --- | --- | --- | --- | --- | --- | --- | --- | --- | --- | --- |
| COc1cc(C(C)O)c(S(=O)(=O)CC(C)O)nn1 (stereo unspecified) | > 100 | > 100 µM | > 100 µM | > 100 | – | – | – | – | – | – | – | – | – | – |
| Cc1c2ccncc2cc2c1[nH]c1ccccc12 | 12.2 | – | – | – | 38.5 | 16.9 | 4.96 | 7.35 | 22.4 | 1.89 | – | – | – | TGI (P388 leukemia): 5.52 µM |
| CC(=O)OCC1OC(n2cc(F)c(=O)[nH]c2=O)C(NC(=O)OCc2ccccc2)C(OC(C)=O)C1OC(C)=O (stereo unspecified) | > 100 | – | – | – | > 100 | > 100 | > 100 | > 100 | > 100 | > 100 | – | – | – | TGI (P388 leukemia): > 100 µM |
| O=C(N/N=C/c1cc(Cl)cc(Cl)c1[O-])c1ccccc1O.O=C(N/N=C/c1cc(Cl)cc(Cl)c1[O-])c1ccccc1O.[Co+2] | – | – | – | – | – | – | – | – | 7.43 | – | – | – | – | GI50 (KM20L2 colon): 2.14 µM |
| CCP(=O)(CC)C(Cl)Cl | – | > 100 µM | > 100 µM | > 100 | – | – | – | – | – | – | > 100 µM | > 100 µM | > 100 µM | – |
| O=C1CC2CC3OC3[C@H]3c4cc5c(cc4C(=O)N1C23)OCO5 (stereo partly specified) | – | – | – | – | – | > 100 | > 100 | – | > 100 | > 100 | – | – | – | – |
| Nc1[nH]nc(Nc2ccc(Cl)cc2)c1P(=O)(c1ccccc1)c1ccccc1 | > 100 | 86.5 µM | 37.2 µM | 47.4 | – | – | – | – | – | – | 49.8 µM | 61.1 µM | > 100 µM | – |
| CC(=O)c1c(C)nc(SSc2nc(C)c(C(C)=O)c(-c3ccc(Cl)cc3)c2C#N)c(C#N)c1-c1ccc(Cl)cc1 | – | > 150 µg/mL | 54.8 µg/mL | – | – | – | – | – | – | – | 103 µg/mL | > 150 µg/mL | > 150 µg/mL | GI50 (DU-145 prostate): 140 µg/mL (≈ 232 µM); GI50 (HS 578T breast): 22.9 µg/mL (≈ 37.9 µM); GI50 (MDA-MB-231 breast): 34.4 µg/mL (≈ 56.9 µM); GI50 (PC-3 prostate): > 150 µg/mL; GI50 (T-47D breast): 36.1 µg/mL (≈ 59.8 µM) |
| CC(=O)Nc1ccc(C(=O)NN2C(=O)C(Cl)/C2=C/c2ccco2)cc1 (stereo unspecified) | – | – | – | – | > 100 | – | – | > 100 | – | – | – | – | – | – |
